Assay results taken from patent US9375005B2, “5-halogenopyrazole indanyl carboxamides” (BAYER CROPSCIENCE AG, priority 2012, dated 2016).
Marks after values point to notes of the source that are not given here.

Experiments:
Puccinia recondita = test: In vivo preventive test on Puccinia recondita (brown rust on wheat); conditions: wheat plants sprayed 24 h before contamination, grading 12 days after contamination
Experimental: Plants, used as controls, are treated with the mixture of acetone/tween/DMSO/water not containing the active material. After 24 hours, the plants are contaminated by spraying the leaves with an aqueous suspension of Puccinia recondita spores (100 000 spores per ml). […] Grading (% of efficacy) is carried out 12 days after the contamination, in comparison with the control plants.

[1] = Measurement of log P values by HPLC on reversed phase columns (EEC directive 79/831 Annex V.A8); type: physicochemical
Pyrenophora teres = test: In vivo preventive test on Pyrenophora teres (net blotch on barley); conditions: barley plants sprayed 24 h before contamination, grading 14 days after contamination
Experimental: Barley plants (“Plaisant” variety), sown in starter cups on a 50/50 peat soil-pozzolana substrate and grown at 22° C., are treated at the 1-leaf stage (10 cm height) by spraying with the active ingredient prepared as described above. Plants, used as controls, are treated with the mixture of acetone/tween/DMSO/water not containing the active material. After 24 hours, the plants are contaminated by spraying the leaves with an aqueous suspension of Pyrenophora teres spores (12 000 spores per ml). The spores are collected from a 12-day-old culture. […] Grading (% of efficacy) is carried out 14 days after the contamination, in comparison with the control plants.

Uromyces appendiculatus = test: In vivo preventive test on Uromyces appendiculatus (bean rust); conditions: bean plants sprayed 24 h before contamination, grading 11 days after contamination
Experimental: Bean plants (“Saxa” variety), sown in starter cups on a 50/50 peat soil-pozzolana substrate and grown at 24° C., are treated at the 2-leaf stage (9 cm height) by spraying with the active ingredient prepared as described above. Plants, used as controls, are treated with the mixture of acetone/tween/DMSO/water not containing the active material. After 24 hours, the plants are contaminated by spraying the leaves with an aqueous suspension of Uromyces appendiculatus spores (150 000 spores per ml). […] Grading (% of efficacy) is carried out 11 days after the contamination, in comparison with the control plants.

Sphaerotheca fuliginea = test: In vivo preventive test on Sphaerotheca fuliginea (powdery mildew on cucurbits); conditions: gherkin plants sprayed 24 h before contamination, grading 12 days after contamination
Experimental: Gherkin plants (“Vert petit de Paris” variety), sown in starter cups on a 50/50 peat soil-pozzolana substrate and grown at 24° C., are treated at the Z11 cotyledon stage by spraying with the active ingredient prepared as described above. Plants, used as controls, are treated with the mixture of acetone/tween/DMSO/water not containing the active material. After 24 hours, the plants are contaminated by spraying the cotyledons with an aqueous suspension of Sphaerotheca fuliginea spores (100 000 spores per ml). The spores are collected from infected plants. The contaminated to gherkin plants are incubated at about 20° C. and at 70-80% relative humidity. Grading (% of efficacy) is carried out 12 days after the contamination, in comparison with the control plants.

Structure (SMILES) | Eff. % (Puccinia recondita; dose 500 ppm) [%] | logP ([1]; method marked [a]) | Eff. % (Uromyces appendiculatus; dose 500 ppm) [%] | also measured
Cn1nc(C(F)F)c(C(=O)Nc2cccc3c2CC2(CCCC2)C3)c1Cl [Example 15] | 100 | 4.44[a] | 100 | Eff. % (Pyrenophora teres; dose 500 ppm): 71%
CC1CC(C)(C)c2cccc(NC(=O)c3c(C(F)F)nn(C)c3Br)c21 (stereo not drawn) [Example 42] | 100 | 4.03[a] | 100 | Eff. % (Sphaerotheca fuliginea; dose 500 ppm): 100%
CC1CC(C)(C)c2c(Br)ccc(NC(=S)c3c(C(F)F)nn(C)c3F)c21 (stereo not drawn) [Example 55] | 94 | 4.64[a]; | 70 | logP ([1]; method marked [b]): 4.49[b]; Eff. % (Pyrenophora teres; dose 500 ppm): 75%
CCC1Cc2c(NC(=S)c3c(C(F)F)nn(C)c3F)cccc2C1(C)C (stereo not drawn) [Example 106] | – | 4.46[a] | – | Eff. % (Puccinia recondita; dose 100 ppm): 100%; Eff. % (Pyrenophora teres; dose 100 ppm): 80%; Eff. % (Uromyces appendiculatus; dose 100 ppm): 94%; Eff. % (Sphaerotheca fuliginea; dose 100 ppm): 89%
CC1c2cccc(NC(=O)c3c(C(F)F)nn(C)c3Cl)c2CC1(C)C (stereo not drawn) [Example 77] | 100 | 4.19[a] | 100 | Eff. % (Sphaerotheca fuliginea; dose 500 ppm): 98%
CC(C)C1Cc2c(NC(=S)c3c(C(F)F)nn(C)c3F)cccc2C1(C)C (stereo not drawn) [Example 95] | – | 4.76[a] | – | Eff. % (Puccinia recondita; dose 100 ppm): 98%; Eff. % (Pyrenophora teres; dose 100 ppm): 70%; Eff. % (Uromyces appendiculatus; dose 100 ppm): 100%; Eff. % (Sphaerotheca fuliginea; dose 100 ppm): 100%
CCCON=C1CC(C)c2c(NC(=O)c3c(C(F)F)nn(C)c3Cl)cccc21 (stereo not drawn) [Example 84] | 81 | 3.92[a] | – | Eff. % (Pyrenophora teres; dose 500 ppm): 75%
CCC1(C)CCc2c(NC(=O)c3c(C(F)F)nn(C)c3Cl)cccc21 (single isomer, unassigned) [Example 52] | 98 | 4.31[a] | 100 | Eff. % (Pyrenophora teres; dose 500 ppm): 80%
CC(C)C1Cc2c(NC(=S)c3c(C(F)F)nn(C)c3Br)cccc2C1(C)C (stereo not drawn) [Example 102] | – | 4.87[a] | – | Eff. % (Puccinia recondita; dose 100 ppm): 94%; Eff. % (Uromyces appendiculatus; dose 100 ppm): 100%
CC1CC(C)(C)c2c(Br)ccc(NC(=O)c3c(C(F)F)nn(C)c3Cl)c21 (stereo not drawn) [Example 36] | – | 4.77[a]; | 77 | logP ([1]; method marked [b]): 4.68[b]; Eff. % (Pyrenophora teres; dose 500 ppm): 75%
Cn1nc(C(F)F)c(C(=O)Nc2cccc3c2CC(C2CCCC2)C3)c1Cl (stereo not drawn) [Example 57] | 94 | 5.03[a] | 100 | Eff. % (Pyrenophora teres; dose 500 ppm): 97%
CC1Cc2cccc(NC(=O)c3c(C(F)F)nn(C)c3F)c2C1 (stereo not drawn) [Example 7] | 98 | 3.31[a] | 100 | Eff. % (Sphaerotheca fuliginea; dose 500 ppm): 78%
CC(C)C1Cc2c(NC(=O)c3c(C(F)F)nn(C)c3Br)cccc2C1(C)C (stereo not drawn) [Example 68] | 98 | 4.92[a] | 100 | –
CON=C1CC(C)c2c(NC(=O)c3c(C(F)F)nn(C)c3Cl)cccc21 (stereo not drawn) [Example 88] | 81 | 2.98[a] | 100 | –
CC1Cc2cccc(NC(=O)c3c(C(F)F)nn(C)c3Cl)c2C1 (stereo not drawn) [Example 8] | 94 | 3.67[a] | 100 | –
CC1CCc2c(NC(=O)c3c(C(F)F)nn(C)c3Cl)cccc21 (stereo not drawn) [Example 109] | – | 3.52[a] | – | Eff. % (Puccinia recondita; dose 100 ppm): 94%; Eff. % (Uromyces appendiculatus; dose 100 ppm): 99%
CC1c2cccc(NC(=O)c3c(C(F)F)nn(C)c3Br)c2CC1(C)C (stereo not drawn) [Example 81] | 98 | 4.16[a] | 99 | –
CC(C)C1Cc2c(NC(=S)c3c(C(F)F)nn(C)c3Cl)cccc2C1(C)C (stereo not drawn) [Example 92] | – | 4.9[a] | – | Eff. % (Puccinia recondita; dose 100 ppm): 94%; Eff. % (Pyrenophora teres; dose 100 ppm): 70%; Eff. % (Uromyces appendiculatus; dose 100 ppm): 100%; Eff. % (Sphaerotheca fuliginea; dose 100 ppm): 100%
CC1CC(C)(C)c2c(I)ccc(NC(=O)c3c(C(F)F)nn(C)c3Cl)c21 (stereo not drawn) [Example 20] | 98 | 4.91[a]; | 99 | logP ([1]; method marked [b]): 4.89[b]; Eff. % (Pyrenophora teres; dose 500 ppm): 97%

Structure (SMILES) | Eff. % (Puccinia recondita; dose 500 ppm) [%] | logP ([1]; method marked [a]) | Eff. % (Uromyces appendiculatus; dose 500 ppm) [%] | also measured
CC1CC2(CCCCC2)c2cccc(NC(=S)c3c(C(F)F)nn(C)c3F)c21 (stereo not drawn) [Example 104] | – | 4.88[a] | – | Eff. % (Puccinia recondita; dose 100 ppm): 100%; Eff. % (Uromyces appendiculatus; dose 100 ppm): 100%; Eff. % (Sphaerotheca fuliginea; dose 100 ppm): 100%
CC1Cc2c(NC(=O)c3c(C(F)F)nn(C)c3Br)cccc2C1(C)C (stereo not drawn) [Example 13] | 75 | 4.16[a] | 79 | –
CC1CC(CC(C)(C)C)c2cccc(NC(=S)c3c(C(F)F)nn(C)c3Cl)c21 (stereo not drawn) [Example 98] | 98 | 5.31[a] | 100 | Eff. % (Sphaerotheca fuliginea; dose 500 ppm): 98%
Cn1nc(C(F)F)c(C(=S)Nc2cccc3c2CCC3C(C)(C)C)c1Cl (stereo not drawn) [Example 74] | 100 | 4.64[a] | 100 | Eff. % (Sphaerotheca fuliginea; dose 500 ppm): 98%
CC1CC2(CCCCC2)c2cccc(NC(=S)c3c(C(F)F)nn(C)c3Cl)c21 (stereo not drawn) [Example 108] | – | 5.01[a] | – | Eff. % (Puccinia recondita; dose 100 ppm): 90%; Eff. % (Uromyces appendiculatus; dose 100 ppm): 100%
CC1CC2(CC2)c2cccc(NC(=O)c3c(C(F)F)nn(C)c3Br)c21 (stereo not drawn) [Example 76] | 98 | 3.83[a] | 100 | –
CC1c2c(NC(=O)c3c(C(F)F)nn(C)c3Cl)cccc2C(C)(C)C1C (stereo not drawn) [Example 85] | 98 | 4.2[a] | 99 | Eff. % (Pyrenophora teres; dose 500 ppm): 92%
CCC1Cc2c(NC(=S)c3c(C(F)F)nn(C)c3Cl)cccc2C1(C)C (stereo not drawn) [Example 105] | – | 4.58[a] | – | Eff. % (Puccinia recondita; dose 100 ppm): 100%; Eff. % (Pyrenophora teres; dose 100 ppm): 70%; Eff. % (Uromyces appendiculatus; dose 100 ppm): 100%; Eff. % (Sphaerotheca fuliginea; dose 100 ppm): 94%
CC1CC(C)(C)c2c(C3CC3)ccc(NC(=O)c3c(C(F)F)nn(C)c3Cl)c21 (stereo not drawn) [Example 16] | 94 | 4.57[a]; | 95 | logP ([1]; method marked [b]): 4.57[b]
CON=C1CC(C)c2c(NC(=O)c3c(C(F)F)nn(C)c3F)cccc21 (stereo not drawn) [Example 58] | 75 | 2.75[a] | 95 | –
CC(C)C1Cc2c(NC(=O)c3c(C(F)F)nn(C)c3Cl)cccc2C1C (stereo not drawn) [Example 21] | 98 | 4.69[a] | 100 | Eff. % (Sphaerotheca fuliginea; dose 500 ppm): 89%
Cn1nc(C(F)F)c(C(=O)Nc2cccc3c2CC2CCCCC32)c1Cl (stereo not drawn) [Example 54] | 94 | 4.54[a] | 100 | –
Cn1nc(C(F)F)c(C(=O)Nc2cccc3c2CC(C)(C)C3)c1Br [Example 71] | 98 | 3.87[a] | 99 | –
CC(C)CC1CC(C)c2c(NC(=O)c3c(C(F)F)nn(C)c3Cl)cccc21 (stereo not drawn) [Example 99] | – | 5.01[a] | – | Eff. % (Puccinia recondita; dose 100 ppm): 100%; Eff. % (Uromyces appendiculatus; dose 100 ppm): 100%
CCON=C1CC(C)c2c(NC(=O)c3c(C(F)F)nn(C)c3Cl)cccc21 (stereo not drawn) [Example 82] | 88 | 3.42[a] | 99 | Eff. % (Pyrenophora teres; dose 500 ppm): 75%
CC(C)CC1CC(C)c2c(NC(=O)c3c(C(F)F)nn(C)c3Cl)cccc21 (stereo not drawn) [Example 79] | 94 | 4.98[a] | 100 | Eff. % (Pyrenophora teres; dose 500 ppm): 92%
CC1c2c(NC(=O)c3c(C(F)F)nn(C)c3Br)cccc2C(C)(C)C1C (stereo not drawn) [Example 65] | 94 | 4.23[a] | 95 | –
CC(C)C1Cc2c(NC(=S)c3c(C(F)F)nn(C)c3Cl)cccc2C1(C)C (stereo not drawn) [Example 94, 5-chloro-3-(difluoromethyl)-N-(2-isopropyl-1,1-dimethyl-2,3-dihydro-1H-inden-4-yl)-1-methyl-1H-pyrazole-4-carbothioamide] | 89 | – | 99 | logP ([1]; pH 2.7): 4.92[a]
